{
  "source": "patent US20210071180A1",
  "about": "“MICRORNA 584-5P COMPOSITIONS AND METHODS FOR TREATING CANCER” (BOARD OF REGENTS, THE UNIVERSY OF TEXAS SYSTEM, priority 2018, published 2021)",
  "format_in_all_cases": "cell-based",
  "key": {"MB cells [1]": {"test_system": "MB cells", "test": "Annexin V-FITC FACS analysis of apoptosis", "details": "Annexin V staining", "method": "(§1) To gain more insight into the tumor-suppressing and VCR-sensitizing activities of miR-584-5p, it was determined how the miR-584-5p mimic affected cell cycle progression of MB cells. […] Bar graphs show DNA histograms quantified using the FlowJo software. In FIG. 9A, the p-values were determined by two-way ANOVA followed by Tukey's multiple-comparisons test. Error bars represent mean±SEM. […] In FIG. 9B, the p-values were calculated using standard Student t-tests. Error bars represent mean±SEM. […] Next, it was determined whether miR-584-5p's effect on cell cycle progression may be mediated via its target genes eIF4E3/HDAC1. […] Bar graphs show dot plots quantified using the FlowJo software. Next, it was tested whether miR-584-5p-induced cell cycle arrest led to apoptosis of MB cells. […] In FIG. 8C, the bar graphs reflect DNA histograms quantified using the FlowJo software and in FIG. 8D and FIG. 9C, the bar graphs show dot plots quantified using the FlowJo software. The p-values for panels 8A-D and FIG. 9C were determined by two-way ANOVA followed by Tukey's multiple-comparisons test. Error bars represent mean±SEM. ****, p<0.0001; ***, p<0.001; **, p<0.01; *, p<0.05.\nFlow cytometry analysis of cell cycle and apoptosis. […] Cells were analyzed using either FACScantoII or LSRII cytometers, and data were quantified using FlowJo 10.2 software."}, "MB cells [2]": {"test_system": "MB cells", "test": "Immunofluorescence count of mitotic cells", "details": "vs scrambled-transfected cells", "method": "as §1\nImmunofluorescence and Western blot analysis Immunofluorescence analyses was carried out on cells fixed in 4% paraformaldehyde (Imam, J. S. et al. PLoS One 7, e52397, (2012)). […]"}, "[3]": {"test_system": "TUBB3, TUBB2a, and TUBB2b", "test": "qPCR analysis of β-tubulin isotypes", "details": "miR-584-5p-overexpressing cells", "method": "DNA is stained with DAPI (blue), whereas spindle is stained with β-tubulin (red) (below).\nVCR disrupts the integrity of the mitotic spindle and destabilizes microtubules (George, P., Journey, L. J. & Goldstein, M. N. J Natl Cancer Inst 35, 355-375 (1965)). Therefore, it was tested whether miR-584-5p and its target genes might affect microtubule dynamics. First, expression of tubulins was deteremined because VCR resistance has been associated with altered expression of tubulin isotypes (Sirotnak, F. M., Danenberg, K. D., Chen, J., Fritz, F. & Danenberg, P. V. Biochem Biophys Res Commun 269, 21-24, (2000)). […] In FIG. 12A, the p-values were calculated using standard Student t-tests. Error bars represent mean±SEM. ****, p<0.0001. […] The p-values were calculated using standard Student t-tests. Error bars represent mean±SEM. To further test how miR-584-5p and its target genes affect spindle integrity, immunofluorescence analysis was performed on miR-584-5p-overexpressing or eIF4E3/HDAC1-silenced MB cells. […] In FIG. 11F, the p-values were calculated using standard Student t-tests. Error bars represent mean±SEM. […] In FIG. 11H, The p-values were calculated using standard Student t-tests. Error bars represent mean±SEM. ****, p<0.0001; ***, p<0.001; **, p<0.01; *, p<0.05. Quantitative real-time PCR. Total RNA was extracted using miRNAeasy kit (Qiagen). […]"}, "MB cells [4]": {"test_system": "MB cells", "test": "IR dose-response, alamarBlue cell viability assay", "details": "IR for 24 hours, normalized to 0 Gy", "text": "FIG. 13C-D show representative immunofluorescence images showing 53BP1 foci in D556Med cells transfected with miR-NC or miR-584-5p mimic (C) or scramble-siRNA or eIF4E3/HDAC1-siRNAs (D) and treated with or without 10 Gy of IR.\nVCR is routinely used during and after radiation therapy to treat MB patients (Packer, R. J. et al. J Neurosurg 74, 433-440, (1991)), mainly because microtubule-targeting agents such as VCR enhances the toxic effects of DNA-damaging agents, including radiation (Poruchynsky, M. S. et al. Proc Natl Acad Sci USA 112, 1571-1576, (2015); and Oehler, C. et al. Neuro Oncol 13, 1000-1010, doi:10.1093/neuonc/nor069 (2011)). Moreover, cells in G2/M phase are the most sensitive to IR (Pawlik, T. M. & Keyomarsi, K. Int J Radiat Oncol Biol Phys 59, 928-942, (2004)). […] All values were normalized to 0 Gy. […] Error bars represent mean±SEM. Next, it was determined whether eIF4E3 or HDAC1 may mediate miR-584-5p's IR response. […] All values were normalized to 0 Gy. […] Error bars represent mean±SEM."}, "normal neural stem cell": {"test_system": "normal neural stem cell", "test": "Normal neural stem cell growth"}},
  "data": [
    {"substance": "miR-584-5p: microRNA mimic; nucleotide sequence UUAUGGUUUGCCUGGGACUGAG (SEQ ID NO: 1); purchased from Thermofisher (chemistry not given here)", "values": [
      {"measurement": "apoptosis of MB cells", "setting": "MB cells [1]", "result": "increased apoptosis"},
      {"measurement": "mitotic cells", "setting": "MB cells [2]", "result": "significantly more mitotic cells"},
      {"measurement": "transcript levels of TUBB3, TUBB2a, and TUBB2b", "setting": "[3]", "result": "significantly reduced transcript levels"},
      {"measurement": "sensitivity to IR relative to scrambled-transfected cells", "setting": "MB cells [4]", "result": 10, "unit": "fold"},
      {"measurement": "normal neural stem cell growth", "setting": "normal neural stem cell", "result": "without affecting normal neural stem cell growth"}
    ]}
  ]
}
